Results: the supplement of paper PMC10307832

Legend:
Test in all cases: relative viability (nuclei count vs DMSO), 5 days (fraction); higher = more cells survive
[1] = system: 201T
Summary of the method: (§1)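 Dosing by pin tool came one day after lung cancer cell lines were seeded in 1536-well plates, using either one drug or a fixed anchor-drug dose plus five library-drug doses (not always all listed) in √10 steps. After 5 days, nuclei were counted on 4× images. Relative viability is treated-well nuclei count divided by vehicle-well nuclei count, and values are medians of duplicate plates.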

[2] = system: NCI-H1563
Summary of the method: as §1

[3] = system: NCI-H661
Summary of the method: as §1

[4] = system: NCI-H1915
Summary of the method: as §1

[5] = system: HCC-15
Summary of the method: as §1

[6] = system: HOP-62
Summary of the method: as §1

[7] = system: NCI-H1993
Summary of the method: as §1

[8] = system: COR-L 105
Summary of the method: as §1

[9] = system: HCC-78
Summary of the method: as §1

[10] = system: LK-2
Summary of the method: as §1

[11] = system: BEN
Summary of the method: as §1

[12] = system: EKVX
Summary of the method: as §1

For `CCNC(=O)c1noc(-c2cc(C(C)C)c(O)cc2O)c1-c1ccc(CN2CCOCC2)cc1` [Luminespib] + Nc1nc2[nH]cc(CCc3ccc(C(=O)N[C@@H](CCC(=O)O)C(=O)O)cc3)c2c(=O)[nH]1 [Pemetrexed] (partner 0.2 µM), the relative viability ([1]; first compound 0.06325 µM) was 0.359, the relative viability ([1]; first compound 0.2 µM) was 0.206 and the relative viability ([2]; first compound 0.002 µM) was 0.808. The relative viability ([2]; first compound 0.006325 µM) was 0.599, the relative viability ([2]; first compound 0.02 µM) was 0.668 and the relative viability ([2]; first compound 0.06325 µM) was 0.402. It also gave a relative viability ([2]; first compound 0.2 µM) of 0.41, a relative viability ([3]; first compound 0.002 µM) of 0.921 and a relative viability ([3]; first compound 0.006325 µM) of 0.863. The relative viability ([3]; first compound 0.02 µM) was 0.966, the relative viability ([3]; first compound 0.06325 µM) was 0.651 and the relative viability ([3]; first compound 0.2 µM) was 0.318. For the same molecule, the relative viability ([4]; first compound 0.002 µM) was 0.479, the relative viability ([4]; first compound 0.006325 µM) was 0.482 and the relative viability ([4]; first compound 0.02 µM) was 0.442. The relative viability ([4]; first compound 0.06325 µM) was 0.312, the relative viability ([4]; first compound 0.2 µM) was 0.0621 and the relative viability ([5]; first compound 0.002 µM) was 0.219. For the same molecule, the relative viability ([5]; first compound 0.006325 µM) was 0.236, the relative viability ([5]; first compound 0.02 µM) was 0.214 and the relative viability ([5]; first compound 0.06325 µM) was 0.193. For the same molecule, the relative viability ([5]; first compound 0.2 µM) was 0.137, the relative viability ([6]; first compound 0.002 µM) was 0.314 and the relative viability ([6]; first compound 0.006325 µM) was 0.4. For the same molecule, the relative viability ([6]; first compound 0.02 µM) was 0.34, the relative viability ([6]; first compound 0.06325 µM) was 0.156 and the relative viability ([6]; first compound 0.2 µM) was 0.125. For the same molecule, the relative viability ([7]; first compound 0.002 µM) was 0.566, the relative viability ([7]; first compound 0.006325 µM) was 0.577 and the relative viability ([7]; first compound 0.02 µM) was 0.557. The relative viability ([7]; first compound 0.06325 µM) was 0.284, the relative viability ([7]; first compound 0.2 µM) was 0.367 and the relative viability ([8]; first compound 0.002 µM) was 1.11. For the same molecule, the relative viability ([8]; first compound 0.006325 µM) was 0.952, the relative viability ([8]; first compound 0.02 µM) was 1.18 and the relative viability ([8]; first compound 0.06325 µM) was 0.593. It also gave a relative viability ([8]; first compound 0.2 µM) of 0.24, a relative viability ([9]; first compound 0.002 µM) of 0.885 and a relative viability ([9]; first compound 0.006325 µM) of 0.864. For the same molecule, the relative viability ([9]; first compound 0.02 µM) was 0.97, the relative viability ([9]; first compound 0.06325 µM) was 0.87 and the relative viability ([9]; first compound 0.2 µM) was 0.858. It also gave a relative viability ([10]; first compound 0.002 µM) of 0.299, a relative viability ([10]; first compound 0.006325 µM) of 0.159 and a relative viability ([10]; first compound 0.02 µM) of 0.221. The relative viability ([10]; first compound 0.06325 µM) was 0.0902, the relative viability ([10]; first compound 0.2 µM) was 0.0524 and the relative viability ([11]; first compound 0.002 µM) was 0.805. The relative viability ([11]; first compound 0.006325 µM) was 0.584, the relative viability ([11]; first compound 0.02 µM) was 0.463 and the relative viability ([11]; first compound 0.06325 µM) was 0.5. The relative viability ([11]; first compound 0.2 µM) was 0.252, the relative viability ([12]; first compound 0.002 µM) was 0.417 and the relative viability ([12]; first compound 0.006325 µM) was 0.255. The relative viability ([12]; first compound 0.02 µM) was 0.408, the relative viability ([12]; first compound 0.06325 µM) was 0.258 and the relative viability ([12]; first compound 0.2 µM) was 0.115.
